Results on 2 molecules are retold here after ChEMBL document CHEMBL4507288 (2021).

Molecules are shown by their SMILES.

Assay [1] has as its target Sodium-dependent noradrenaline transporter (Homo sapiens, UniProt P23975). Nature of the assay: GPCRScan assay: inhibition of NET. Details: radioligand conc. used [nm] 1.3 – 5.0, parental cells stable HEK.
Assay [2] deals with Beta-1 adrenergic receptor (Homo sapiens) (UniProt P08588). The following applies: Compound concentration 10.0 uM.
Assay [3] has as its target Mitogen-activated protein kinase 6 (Homo sapiens) (UniProt Q16659). The note with it: Compound concentration 1000.0 nM.
The target of assay [4] is Citron Rho-interacting kinase (Homo sapiens) (UniProt O14578). The note with it: Compound concentration 1000.0 nM.
The target in assay [5] is Phosphatidylinositol 3-kinase catalytic subunit type 3 (Homo sapiens) (UniProt Q8NEB9). The following applies: Compound concentration 1000.0 nM.
Assay [6] concerns the target Muscle, skeletal receptor tyrosine-protein kinase (Homo sapiens) (UniProt O15146). The note with it: Compound concentration 1000.0 nM.
Assay [7] relates to Phosphatidylinositol 4,5-bisphosphate 3-kinase catalytic subunit alpha isoform (Homo sapiens), P42336 [H1047L]. The following applies: Compound concentration 1000.0 nM.
Assay [8] addresses Receptor-type tyrosine-protein kinase FLT3 (Homo sapiens) (UniProt P36888). The following applies: Compound concentration 1000.0 nM.
The target of assay [9] is Mitogen-activated protein kinase kinase kinase 20 (Homo sapiens) (UniProt Q9NYL2). The following applies: Compound concentration 1000.0 nM.
Assay [10] has as its target Tyrosine-protein kinase Lck (Homo sapiens) (UniProt P06239). The note with it: Compound concentration 1000.0 nM.
For assay [11], the target named is Dual specificity mitogen-activated protein kinase kinase 5 (Homo sapiens) (UniProt Q13163). The following applies: Compound concentration 1000.0 nM.
Assay [12] addresses Dual specificity testis-specific protein kinase 1 (Homo sapiens) (UniProt Q15569). The note with it: Compound concentration 1000.0 nM.
Assay [13] has as its target TGF-beta receptor type-2 (Homo sapiens) (UniProt P37173). The following applies: Compound concentration 1000.0 nM.
Assay [14] has as its target Tyrosine-protein kinase TXK (Homo sapiens) (UniProt P42681). The following applies: Compound concentration 1000.0 nM.
Assay [15] deals with Casein kinase I isoform alpha (Homo sapiens) (UniProt P48729). The following applies: Compound concentration 1000.0 nM.
The target of assay [16] is Ephrin type-B receptor 2 (Homo sapiens) (UniProt P29323). The note with it: Compound concentration 1000.0 nM.
For assay [17], the target named is Ribosomal protein S6 kinase alpha-6 (Homo sapiens) (UniProt Q9UK32). The following applies: Compound concentration 1000.0 nM.
Assay [18] deals with Ephrin type-B receptor 4 (Homo sapiens) (UniProt P54760). The note with it: Compound concentration 1000.0 nM.
The target in assay [19] is Serine/threonine-protein kinase NLK (Homo sapiens) (UniProt Q9UBE8). The following applies: Compound concentration 1000.0 nM.
Assay [20] deals with Mitogen-activated protein kinase kinase kinase kinase 5 (Homo sapiens) (UniProt Q9Y4K4). The following applies: Compound concentration 1000.0 nM.
Assay [21] addresses Serine/threonine-protein kinase 38-like (Homo sapiens) (UniProt Q9Y2H1). The note with it: Compound concentration 1000.0 nM.
Assay [22] addresses Receptor-type tyrosine-protein kinase FLT3 (Homo sapiens) (UniProt P36888). The following applies: Compound concentration 1000.0 nM. The source holds these as a separate data set.
Assay [23] deals with RAC-gamma serine/threonine-protein kinase (Homo sapiens) (UniProt Q9Y243). The following applies: Compound concentration 1000.0 nM.
Assay [24] deals with Mitogen-activated protein kinase 10 (Homo sapiens) (UniProt P53779). The following applies: Compound concentration 1000.0 nM.
Assay [25] has as its target Cyclin-G-associated kinase (Homo sapiens) (UniProt O14976). The following applies: Compound concentration 1000.0 nM.
In assay [26] the target is Casein kinase I isoform delta (Homo sapiens) (UniProt P48730). The following applies: Compound concentration 1000.0 nM.
Assay [27] has as its system Phosphatidylinositol 4,5-bisphosphate 3-kinase catalytic subunit alpha isoform (Homo sapiens), P42336 [Q546K]. The following applies: Compound concentration 1000.0 nM.
The target in assay [28] is Interferon-induced, double-stranded RNA-activated protein kinase (Homo sapiens) (UniProt P19525). The following applies: Compound concentration 1000.0 nM.
Assay [29] deals with Phosphatidylinositol 4-phosphate 5-kinase type-1 gamma (Homo sapiens) (UniProt O60331). The note with it: Compound concentration 1000.0 nM.
Assay [30] addresses Serine/threonine-protein kinase PLK3 (Homo sapiens) (UniProt Q9H4B4). The note with it: Compound concentration 1000.0 nM.
For assay [31], the target named is Dual specificity mitogen-activated protein kinase kinase 2 (Homo sapiens) (UniProt P36507). The note with it: Compound concentration 1000.0 nM.
The target of assay [32] is Interleukin-1 receptor-associated kinase 1 (Homo sapiens) (UniProt P51617). The following applies: Compound concentration 1000.0 nM.
For assay [33], the target named is Cyclin-dependent kinase 17 (Homo sapiens) (UniProt Q00537). The note with it: Compound concentration 1000.0 nM.
The target of assay [34] is Serine/threonine-protein kinase PAK 5 (Homo sapiens) (UniProt Q9P286). The note with it: Compound concentration 1000.0 nM.
The target of assay [35] is Phosphatidylinositol 3-kinase C2 domain-containing subunit gamma (Homo sapiens) (UniProt O75747). The following applies: Compound concentration 1000.0 nM.
The target in assay [36] is Ribosomal protein S6 kinase alpha-5 (Homo sapiens) (UniProt O75582). The following applies: Compound concentration 1000.0 nM.
In assay [37] the target is Activin receptor type-1B (Homo sapiens) (UniProt P36896). The following applies: Compound concentration 1000.0 nM.
Assay [38] concerns Hepatocyte growth factor receptor (Homo sapiens), P08581 [M1250T]. The note with it: Compound concentration 1000.0 nM.
Assay [39] concerns the target Calcium/calmodulin-dependent protein kinase type 1 (Homo sapiens) (UniProt Q14012). The following applies: Compound concentration 1000.0 nM.
Assay [40] has as its target Macrophage-stimulating protein receptor (Homo sapiens) (UniProt Q04912). The note with it: Compound concentration 1000.0 nM.
For assay [41], the target named is Cyclin-dependent kinase 3 (Homo sapiens) (UniProt Q00526). The following applies: Compound concentration 1000.0 nM.
The test system of assay [42] is Epidermal growth factor receptor (Homo sapiens), P00533 [UNDEFINED MUTATION]. The following applies: Compound concentration 1000.0 nM.
Assay [43] has as its system Tyrosine-protein kinase ABL1 (Homo sapiens), P00519 [F317I]. The following applies: Compound concentration 1000.0 nM.
The target of assay [44] is Tyrosine-protein kinase ABL1 (Homo sapiens) (UniProt P00519). The following applies: Compound concentration 1000.0 nM.
Assay [45] has as its target Serine/threonine-protein kinase TAO1 (Homo sapiens) (UniProt Q7L7X3). The following applies: Compound concentration 1000.0 nM.

Sequence of Receptor-type tyrosine-protein kinase FLT3 (Homo sapiens) (P36888 whole entry): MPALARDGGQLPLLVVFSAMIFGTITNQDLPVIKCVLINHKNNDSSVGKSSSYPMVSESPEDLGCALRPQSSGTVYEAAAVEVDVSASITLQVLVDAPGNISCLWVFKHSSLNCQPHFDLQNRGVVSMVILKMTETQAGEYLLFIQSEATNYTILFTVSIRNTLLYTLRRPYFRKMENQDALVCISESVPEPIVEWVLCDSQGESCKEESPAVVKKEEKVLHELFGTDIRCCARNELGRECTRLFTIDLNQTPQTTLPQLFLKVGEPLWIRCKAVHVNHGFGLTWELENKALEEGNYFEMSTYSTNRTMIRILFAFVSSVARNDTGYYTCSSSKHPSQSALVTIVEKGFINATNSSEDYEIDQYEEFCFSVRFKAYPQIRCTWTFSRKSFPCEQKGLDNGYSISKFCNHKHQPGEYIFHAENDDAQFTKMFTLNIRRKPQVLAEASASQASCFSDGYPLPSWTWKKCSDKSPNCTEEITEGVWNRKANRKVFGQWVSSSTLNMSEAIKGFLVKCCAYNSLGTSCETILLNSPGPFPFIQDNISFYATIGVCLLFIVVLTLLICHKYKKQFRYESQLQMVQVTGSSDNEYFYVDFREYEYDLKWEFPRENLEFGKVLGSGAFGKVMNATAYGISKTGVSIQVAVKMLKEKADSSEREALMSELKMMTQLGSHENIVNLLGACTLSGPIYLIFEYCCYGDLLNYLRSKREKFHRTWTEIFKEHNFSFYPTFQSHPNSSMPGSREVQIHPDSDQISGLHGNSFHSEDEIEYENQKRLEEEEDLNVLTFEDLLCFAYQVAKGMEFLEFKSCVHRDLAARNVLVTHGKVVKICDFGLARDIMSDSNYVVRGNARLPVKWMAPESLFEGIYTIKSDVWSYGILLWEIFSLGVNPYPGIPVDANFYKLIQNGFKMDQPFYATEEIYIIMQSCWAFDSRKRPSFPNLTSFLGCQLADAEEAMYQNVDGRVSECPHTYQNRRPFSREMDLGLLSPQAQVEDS
Sequence of Phosphatidylinositol 3-kinase C2 domain-containing subunit gamma (Homo sapiens) (O75747 whole entry, the tested form may be a part): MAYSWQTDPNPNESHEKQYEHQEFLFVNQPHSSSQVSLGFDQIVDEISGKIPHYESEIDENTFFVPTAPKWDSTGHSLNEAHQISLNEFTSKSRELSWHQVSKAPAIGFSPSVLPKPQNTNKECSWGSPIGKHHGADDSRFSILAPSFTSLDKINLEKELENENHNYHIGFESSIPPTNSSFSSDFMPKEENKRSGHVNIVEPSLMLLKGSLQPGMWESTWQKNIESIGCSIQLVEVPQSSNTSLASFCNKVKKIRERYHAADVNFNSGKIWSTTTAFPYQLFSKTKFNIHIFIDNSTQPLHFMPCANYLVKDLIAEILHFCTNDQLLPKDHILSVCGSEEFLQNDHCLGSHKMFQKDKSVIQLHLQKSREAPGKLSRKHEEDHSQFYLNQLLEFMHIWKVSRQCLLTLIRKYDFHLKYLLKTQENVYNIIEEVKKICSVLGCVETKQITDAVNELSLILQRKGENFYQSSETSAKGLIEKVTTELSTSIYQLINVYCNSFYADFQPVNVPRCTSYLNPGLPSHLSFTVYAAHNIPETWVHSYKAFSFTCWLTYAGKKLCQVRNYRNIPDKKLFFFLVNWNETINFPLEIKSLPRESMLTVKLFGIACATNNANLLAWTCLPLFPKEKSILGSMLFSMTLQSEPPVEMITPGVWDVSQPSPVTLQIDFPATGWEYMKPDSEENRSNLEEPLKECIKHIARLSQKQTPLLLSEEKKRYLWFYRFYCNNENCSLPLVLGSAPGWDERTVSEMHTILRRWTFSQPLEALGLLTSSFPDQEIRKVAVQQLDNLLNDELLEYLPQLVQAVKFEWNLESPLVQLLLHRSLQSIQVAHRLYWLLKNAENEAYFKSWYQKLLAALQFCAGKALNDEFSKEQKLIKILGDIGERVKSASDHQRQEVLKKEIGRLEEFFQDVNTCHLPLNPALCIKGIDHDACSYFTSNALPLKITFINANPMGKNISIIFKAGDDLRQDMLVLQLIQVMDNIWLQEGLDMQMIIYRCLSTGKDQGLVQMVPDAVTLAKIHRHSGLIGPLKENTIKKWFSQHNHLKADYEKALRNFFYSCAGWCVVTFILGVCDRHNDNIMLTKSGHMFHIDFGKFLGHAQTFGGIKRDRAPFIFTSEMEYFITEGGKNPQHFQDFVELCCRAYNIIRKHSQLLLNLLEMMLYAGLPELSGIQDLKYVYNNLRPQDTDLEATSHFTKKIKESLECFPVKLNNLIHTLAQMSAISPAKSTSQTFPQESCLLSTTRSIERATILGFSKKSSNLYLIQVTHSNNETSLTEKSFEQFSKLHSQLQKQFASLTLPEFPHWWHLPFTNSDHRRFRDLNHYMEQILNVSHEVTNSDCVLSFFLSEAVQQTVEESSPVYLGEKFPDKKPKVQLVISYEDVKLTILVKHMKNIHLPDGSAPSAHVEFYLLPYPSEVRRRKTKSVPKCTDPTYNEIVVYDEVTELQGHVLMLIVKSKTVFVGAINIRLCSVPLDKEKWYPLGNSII
Sequence of Serine/threonine-protein kinase NLK (Homo sapiens) (Q9UBE8 whole entry): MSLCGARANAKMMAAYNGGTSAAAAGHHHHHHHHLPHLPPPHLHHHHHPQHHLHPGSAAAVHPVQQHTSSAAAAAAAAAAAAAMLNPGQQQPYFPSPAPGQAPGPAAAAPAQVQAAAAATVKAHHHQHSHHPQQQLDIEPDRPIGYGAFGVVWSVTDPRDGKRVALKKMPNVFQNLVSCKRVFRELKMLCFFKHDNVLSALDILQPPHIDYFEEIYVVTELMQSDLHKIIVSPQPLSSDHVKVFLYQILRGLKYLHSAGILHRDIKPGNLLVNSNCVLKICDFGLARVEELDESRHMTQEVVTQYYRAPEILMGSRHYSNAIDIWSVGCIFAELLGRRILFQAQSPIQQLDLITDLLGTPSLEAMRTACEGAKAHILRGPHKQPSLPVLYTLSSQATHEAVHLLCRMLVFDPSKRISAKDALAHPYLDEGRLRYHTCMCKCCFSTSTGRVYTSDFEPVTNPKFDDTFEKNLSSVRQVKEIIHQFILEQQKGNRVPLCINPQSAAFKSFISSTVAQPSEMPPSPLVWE
Sequence of Mitogen-activated protein kinase 10 (Homo sapiens) (P53779 whole entry): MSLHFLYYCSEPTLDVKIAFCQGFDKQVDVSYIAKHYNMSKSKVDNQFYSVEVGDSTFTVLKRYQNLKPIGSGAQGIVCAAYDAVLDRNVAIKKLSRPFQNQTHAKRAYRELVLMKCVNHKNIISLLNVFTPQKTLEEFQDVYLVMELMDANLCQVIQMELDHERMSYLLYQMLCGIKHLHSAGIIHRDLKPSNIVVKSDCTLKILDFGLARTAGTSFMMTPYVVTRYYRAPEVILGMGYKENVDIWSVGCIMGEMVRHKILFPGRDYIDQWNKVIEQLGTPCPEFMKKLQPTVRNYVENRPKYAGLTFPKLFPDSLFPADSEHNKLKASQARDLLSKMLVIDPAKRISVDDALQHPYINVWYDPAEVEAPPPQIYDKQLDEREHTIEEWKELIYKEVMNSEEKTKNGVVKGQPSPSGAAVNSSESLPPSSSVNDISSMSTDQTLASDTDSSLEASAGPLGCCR
Sequence of Epidermal growth factor receptor (Homo sapiens), P00533 [UNDEFINED MUTATION] (P00533 whole entry, looked up, stated change not applied): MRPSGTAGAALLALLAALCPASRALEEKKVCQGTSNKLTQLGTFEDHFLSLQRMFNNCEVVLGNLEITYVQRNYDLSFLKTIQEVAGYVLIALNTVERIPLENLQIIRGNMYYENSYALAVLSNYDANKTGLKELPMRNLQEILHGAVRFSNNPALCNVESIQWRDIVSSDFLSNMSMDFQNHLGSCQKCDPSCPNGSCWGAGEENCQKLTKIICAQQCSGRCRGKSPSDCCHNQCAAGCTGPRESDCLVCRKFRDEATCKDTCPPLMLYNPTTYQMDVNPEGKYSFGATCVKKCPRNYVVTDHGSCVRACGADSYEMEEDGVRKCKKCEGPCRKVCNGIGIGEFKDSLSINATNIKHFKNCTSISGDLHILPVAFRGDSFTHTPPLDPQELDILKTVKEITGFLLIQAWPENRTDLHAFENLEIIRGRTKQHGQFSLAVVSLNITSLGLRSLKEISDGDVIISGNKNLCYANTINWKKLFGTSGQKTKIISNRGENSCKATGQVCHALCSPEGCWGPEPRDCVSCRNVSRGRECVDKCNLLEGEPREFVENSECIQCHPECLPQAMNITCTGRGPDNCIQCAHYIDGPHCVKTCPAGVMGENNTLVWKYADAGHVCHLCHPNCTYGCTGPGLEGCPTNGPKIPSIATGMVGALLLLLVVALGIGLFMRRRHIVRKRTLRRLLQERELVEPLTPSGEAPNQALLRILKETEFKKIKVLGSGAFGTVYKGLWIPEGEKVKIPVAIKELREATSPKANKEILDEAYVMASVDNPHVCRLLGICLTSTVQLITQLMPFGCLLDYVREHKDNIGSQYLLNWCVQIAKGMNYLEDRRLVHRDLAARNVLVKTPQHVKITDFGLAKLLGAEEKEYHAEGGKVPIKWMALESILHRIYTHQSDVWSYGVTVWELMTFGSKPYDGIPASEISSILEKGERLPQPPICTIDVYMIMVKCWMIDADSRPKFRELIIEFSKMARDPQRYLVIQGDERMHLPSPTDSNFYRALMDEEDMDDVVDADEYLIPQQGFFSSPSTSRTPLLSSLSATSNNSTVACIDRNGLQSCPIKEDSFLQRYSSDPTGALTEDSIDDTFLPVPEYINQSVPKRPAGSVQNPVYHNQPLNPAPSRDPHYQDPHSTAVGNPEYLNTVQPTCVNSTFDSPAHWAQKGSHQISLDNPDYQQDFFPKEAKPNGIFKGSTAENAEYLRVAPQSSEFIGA
Sequence of Cyclin-dependent kinase 3 (Homo sapiens) (Q00526 whole entry, looked up): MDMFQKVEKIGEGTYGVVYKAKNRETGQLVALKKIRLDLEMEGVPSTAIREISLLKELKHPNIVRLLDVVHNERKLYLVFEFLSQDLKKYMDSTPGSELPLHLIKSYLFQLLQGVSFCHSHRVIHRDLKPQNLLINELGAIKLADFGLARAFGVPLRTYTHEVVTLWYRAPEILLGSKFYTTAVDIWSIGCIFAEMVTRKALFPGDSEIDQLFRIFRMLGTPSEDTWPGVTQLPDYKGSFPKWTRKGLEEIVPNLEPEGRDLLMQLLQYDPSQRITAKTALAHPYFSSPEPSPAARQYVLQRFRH

Regarding `CC(C)(C)OC(=O)N1CCCC1CNC1CCC(c2cc(F)ccc2F)(S(=O)(=O)c2ccc(Cl)cc2)CC1` (stereo not given) [GSI-NC], in assay [1], the Ki turned out to be 2.43 µM. In assay [2], the inhibition is 3.61%.
`O=S(=O)(NC1CCC(c2cc(F)ccc2F)(S(=O)(=O)c2ccc(Cl)cc2)CC1)C(F)(F)F` (stereo not given) [MRK-560]: the residual activity is 100% in assay [3]; 0% in assay [4]; 100% in [5]; 100% in [6]; 41% in assay [7]; 100% in assay [8]. Further, the residual activity was 92% in assay [9]; 100% in assay [10]; 52% in [11]; 100% in [12]; 100% in assay [13]; 99% in assay [14]. The residual activity in [15] was 100%; in assay [16], 100%; in assay [17], 83%; in [18], 100%; in assay [19], 100%; in [20], 69%. Also, the residual activity in assay [21] was 75%; in [22], 100%; in [23] it was 100%; in assay [24], 67%; in [25] it was 89%; in assay [26] it was 87%. The residual activity in assay [27] is 91%; in [28], 87%; in assay [29], 87%; in assay [30] it was 97%; in assay [31], 100%; in [32], 93%. In addition, the residual activity in [33] is 100%; in [34], 100%; in [35], 100%; in assay [36] it was 94%; in assay [37] it was 87%; in [38], 84%. Also, the residual activity in [39] is 84%; in [40] it was 93%; in [41] it was 100%; in assay [42], 92%; in assay [43], 84%; in [44], 88%. Also, the residual activity in assay [45] was 100%.
